Results as given in PubChem BioAssay (NCI).
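Values below derive from 48-hour exposures of cells grown in 96-well plates, with endpoints linearly interpolated between the two concentrations bracketing the appropriate inhibition level. TGI is the concentration that stops growth completely.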

Test system: OVCAR-8 ovarian
Experiment: NCI tumour cell line growth inhibition, 48 h

Compound	TGI
COc1cccc(C2CC23C(=O)NC(=O)NC3=O)c1 (stereo not given)	> 100 µM
O=C(CSc1c2ccccc2nc2ccccc12)Nc1ccccc1-c1ccccc1NC(=O)CSc1c2ccccc2nc2ccccc12	> 86.8 µM
CC1(C)OC[C@@H]([C@H](O)C2C=CC(=O)S2)O1 (stereo not given in full)	56.4 µM
CCOC(=O)Cc1ccc(Nc2nc3ccccc3nc2C(=O)OCC)cc1	> 100 µM
O=S(=O)(c1ccccc1)N1N=C2c3ccccc3CCC[C@H]2C1c1ccccc1 (stereo not given in full)	> 100 µM
CCOC(=O)/C(=C/c1ccc(N(C)C)cc1)N(CC)CC	> 100 µM
CC1CN=C(N(C(=O)Nc2ccccc2)c2ccc(Cl)c(Cl)c2)S1 (stereo not given)	> 100 µM
CC(=O)O[C@H]1CC[C@@]2(C)C(=CC[C@H]3[C@@H]4C/C(=C\c5ccc(N(C)C)cc5)[C@H](OC(C)=O)[C@@]4(C)CC[C@@H]32)C1	23.4 µM
CC(C)(C)[Si](C)(C)Oc1ccc(C2CNC(=O)C23CCC(=O)N3Cc2ccccc2)cc1 (stereo not given)	28.8 µM

Test system: RPMI-8226 leukemia
Experiment: NCI tumour cell line growth inhibition, 48 h

Compound	TGI
COC(=O)[C@@]1(C)/C(=N/NS(=O)(=O)c2ccc(C)cc2)CCC[C@@H]1C	72.6 µM
COc1ccc(OC)c(/C=C(/C#N)c2ccccc2)c1	60.6 µM
Cc1ccc(Cl)c2c(=O)c3ccc(N)cc3sc12	42.3 µM
C=CCN1CCC(O)(c2cc(C(=O)OCC)[nH]c2-c2cc(C)no2)C1 (stereo not given)	> 100 µM
CC1CN=C(N(C(=O)Nc2ccc(Cl)c(Cl)c2)c2ccccc2)S1 (stereo not given)	> 100 µM
C=C(C)C1CCC2(C)CC1c1c(c(C)cc3c1[nH]c1ccccc13)O2 (stereo not given)	> 25 µM
CC(C)(C)OC/C=C(/CO)[C@@H]1C=C[C@H](O)C1	> 100 µM
CN(CCN(C)C(=O)CCn1cc(F)c(=O)[nH]c1=O)C(=O)CCn1cc(F)c(=O)[nH]c1=O	> 100 µM
CCOC1c2cc(C(C)C)c(O)c(O)c2[C@@]23CCCC(C)(C)C2C1OC3=O (stereo not given in full)	> 100 µM
C=CN1C(=O)[C@H](Oc2ccccc2)[C@@H]1c1ccccc1	57 µM
CS(=O)(=O)c1ccc(-c2cc(-c3ccc(S(C)(=O)=O)cc3)[n+](-c3cc(-c4ccccc4)c([O-])c(-c4ccccc4)c3)c(-c3ccc(S(C)(=O)=O)cc3)c2)cc1	> 100 µM
Nc1ccn([C@H]2CO[C@@H](CO)[C@@H]2O)c(=O)n1	> 100 µM
COc1ccc(C(C#N)NNC(=O)Cc2ccccc2)cc1OC (stereo not given)	> 100 µM
O=C(CC(C(=O)c1ccsc1)c1ccccc1)c1ccccc1 (stereo not given)	> 100 µM
CC(C)=CC1CC(=[N+]=[N-])C(=O)C1(C)C (stereo not given)	> 74.6 µM
COc1cccc(C2CC23C(=O)NC(=O)NC3=O)c1 (stereo not given)	> 100 µM
O=C(CSc1c2ccccc2nc2ccccc12)Nc1ccccc1-c1ccccc1NC(=O)CSc1c2ccccc2nc2ccccc12	30.4 µM
CC1(C)OC[C@@H]([C@H](O)C2C=CC(=O)S2)O1 (stereo not given in full)	53.4 µM
O=S(=O)(c1ccccc1)N1N=C2c3ccccc3CCC[C@H]2C1c1ccccc1 (stereo not given in full)	> 100 µM
CCOC(=O)/C(=C/c1ccc(N(C)C)cc1)N(CC)CC	89 µM
CC1CN=C(N(C(=O)Nc2ccccc2)c2ccc(Cl)c(Cl)c2)S1 (stereo not given)	> 100 µM
CC(=O)O[C@H]1CC[C@@]2(C)C(=CC[C@H]3[C@@H]4C/C(=C\c5ccc(N(C)C)cc5)[C@H](OC(C)=O)[C@@]4(C)CC[C@@H]32)C1	> 100 µM
CC(C)(C)[Si](C)(C)Oc1ccc(C2CNC(=O)C23CCC(=O)N3Cc2ccccc2)cc1 (stereo not given)	18.8 µM

Test system: SF-268 CNS
Experiment: NCI tumour cell line growth inhibition, 48 h

Compound	TGI
COC(=O)[C@@]1(C)/C(=N/NS(=O)(=O)c2ccc(C)cc2)CCC[C@@H]1C	> 100 µM
COc1ccc(OC)c(/C=C(/C#N)c2ccccc2)c1	> 100 µM
COC(=O)C(C(=O)Cc1ccccc1[N+](=O)[O-])C(=O)OC	> 100 µM
CCCCC/C=C1\CCC(CN(C)C)C1=O (stereo not given)	41.4 µM
O=C(Cn1c(-c2ccccc2)cc2ccccc21)N1CCCC1	> 100 µM
Cc1ccc(Cl)c2c(=O)c3ccc(N)cc3sc12	> 100 µM
C=CCN1CCC(O)(c2cc(C(=O)OCC)[nH]c2-c2cc(C)no2)C1 (stereo not given)	> 100 µM
CC1CN=C(N(C(=O)Nc2ccc(Cl)c(Cl)c2)c2ccccc2)S1 (stereo not given)	> 100 µM
CNCCCn1c2ccccc2c2c3c(c(-c4ccsc4)cc21)C(=O)NC3=O	4 µM
C=C(C)C1CCC2(C)CC1c1c(c(C)cc3c1[nH]c1ccccc13)O2 (stereo not given)	> 25 µM
CC(C)(C)OC/C=C(/CO)[C@@H]1C=C[C@H](O)C1	> 100 µM
CN(CCN(C)C(=O)CCn1cc(F)c(=O)[nH]c1=O)C(=O)CCn1cc(F)c(=O)[nH]c1=O	> 100 µM
CCOC1c2cc(C(C)C)c(O)c(O)c2[C@@]23CCCC(C)(C)C2C1OC3=O (stereo not given in full)	> 100 µM
C=CN1C(=O)[C@H](Oc2ccccc2)[C@@H]1c1ccccc1	> 100 µM
CS(=O)(=O)c1ccc(-c2cc(-c3ccc(S(C)(=O)=O)cc3)[n+](-c3cc(-c4ccccc4)c([O-])c(-c4ccccc4)c3)c(-c3ccc(S(C)(=O)=O)cc3)c2)cc1	> 100 µM
Nc1ccn([C@H]2CO[C@@H](CO)[C@@H]2O)c(=O)n1	> 100 µM
COc1ccc(C(C#N)NNC(=O)Cc2ccccc2)cc1OC (stereo not given)	> 100 µM
O=C(CC(C(=O)c1ccsc1)c1ccccc1)c1ccccc1 (stereo not given)	> 100 µM
CC(C)=CC1CC(=[N+]=[N-])C(=O)C1(C)C (stereo not given)	> 100 µM
COc1cccc(C2CC23C(=O)NC(=O)NC3=O)c1 (stereo not given)	> 100 µM
O=C(CSc1c2ccccc2nc2ccccc12)Nc1ccccc1-c1ccccc1NC(=O)CSc1c2ccccc2nc2ccccc12	> 69.4 µM
CC1(C)OC[C@@H]([C@H](O)C2C=CC(=O)S2)O1 (stereo not given in full)	38.8 µM
CCOC(=O)Cc1ccc(Nc2nc3ccccc3nc2C(=O)OCC)cc1	> 100 µM
